Test results from PubChem BioAssay AID330 (DTP/NCI, 2004).
Values joined by “and” are separate entries in the source; they are usually repeats but may differ in a detail not shown here. Equal values may be shown once. Inconclusive results and toxic doses are left out. How the source made its calls: active means survival T/C of 150% or more; inactive means T/C below 125% in these data.

Tested on: P388 leukemia ip, CD2F1 mice, survival T/C
Test: NCI In Vivo Anticancer Drug Screen. Data for tumor model P388 Leukemia (intraperitoneal) in CD2F1 (CDF1) mice
Conditions: endpoint: median survival time, higher = longer survival
Summary of the method: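 Mice carrying the transplanted tumor received test compound or vehicle. Survival was recorded in each group, and the value is the treated-group measurement divided by that of the vehicle-treated control group.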

[1] = dose: 50.0 mg/kg/injection, schedule: Q01DX009 (ip), vehicle: saline
[2] = dose: 100.0 mg/kg/injection, schedule: Q01DX009 (ip), vehicle: saline
[3] = dose: 50.0 mg/kg/injection, schedule: Q01DX005 (ip), vehicle: Klucel (hydroxypropylcellulose) (HPC)
[4] = dose: 100.0 mg/kg/injection, schedule: Q01DX005 (ip), vehicle: Klucel (hydroxypropylcellulose) (HPC)
[5] = dose: 200.0 mg/kg/injection, schedule: Q01DX005 (ip), vehicle: Klucel (hydroxypropylcellulose) (HPC)
[6] = dose: 50.0 mg/kg/injection, schedule: Q01DX009 (ip), vehicle: saline with Tween-80
[7] = dose: 100.0 mg/kg/injection, schedule: Q01DX009 (ip), vehicle: saline with Tween-80
[8] = dose: 100.0 mg/kg/injection, schedule: Q01DX001 (ip), vehicle: Klucel (hydroxypropylcellulose) (HPC)
[9] = dose: 50.0 mg/kg/injection, schedule: Q01DX005 (ip), vehicle: saline with Tween-80
[10] = dose: 100.0 mg/kg/injection, schedule: Q01DX005 (ip), vehicle: saline with Tween-80
[11] = dose: 200.0 mg/kg/injection, schedule: Q01DX005 (ip), vehicle: saline with Tween-80
[12] = dose: 60.0 mg/kg/injection, schedule: Q01DX005 (ip), vehicle: saline with Tween-80
[13] = dose: 120.0 mg/kg/injection, schedule: Q01DX005 (ip), vehicle: saline with Tween-80
[14] = dose: 240.0 mg/kg/injection, schedule: Q01DX005 (ip), vehicle: saline with Tween-80
[15] = dose: 100.0 mg/kg/injection, schedule: Q04DX002 (ip), vehicle: Klucel (hydroxypropylcellulose) (HPC)
[16] = dose: 200.0 mg/kg/injection, schedule: Q04DX002 (ip), vehicle: Klucel (hydroxypropylcellulose) (HPC)
[17] = dose: 400.0 mg/kg/injection, schedule: Q04DX002 (ip), vehicle: Klucel (hydroxypropylcellulose) (HPC)
[18] = dose: 50.0 mg/kg/injection, schedule: Q01DX009 (ip), vehicle: Klucel (hydroxypropylcellulose) (HPC)
[19] = dose: 100.0 mg/kg/injection, schedule: Q01DX009 (ip), vehicle: Klucel (hydroxypropylcellulose) (HPC)
[20] = dose: 200.0 mg/kg/injection, schedule: Q01DX009 (ip), vehicle: Klucel (hydroxypropylcellulose) (HPC)

Measured: T/C

CC(=O)N(c1ccccc1)c1ccccc1[N+](=O)[O-]
inactive: [1] 87 % of control | [2] 86 % of control | dose: 200.0 mg/kg/injection, schedule: Q01DX009 (ip), vehicle: saline 86 % of control

COC(=O)c1cc(OC)cc(C)c1OC(=Nc1cccc(Cl)c1C)c1ccccc1
inactive: [3] 97 % of control | [4] 92 % of control | [5] 96 % of control

COC(=O)C1=C(\N2CCOCC2)CCCCC/C=C\1C(=O)OC
inactive: dose: 25.0 mg/kg/injection, schedule: Q01DX009 (ip), vehicle: saline with Tween-80 99 % of control and 106 % of control | [6] 100 % of control and 103 % of control | [7] 103 % of control and 107 % of control | dose: 200.0 mg/kg/injection, schedule: Q01DX009 (ip), vehicle: saline with Tween-80 88 % of control and 95 % of control

Cc1nn2c(-c3snnc3C)nnc2s1
inactive: [8] 99 % of control | dose: 200.0 mg/kg/injection, schedule: Q01DX001 (ip), vehicle: Klucel (hydroxypropylcellulose) (HPC) 100 % of control | dose: 400.0 mg/kg/injection, schedule: Q01DX001 (ip), vehicle: Klucel (hydroxypropylcellulose) (HPC) 100 % of control

O=C1CCSC(=O)N1c1ccccc1
inactive: [9] 108 % of control | [10] 100 % of control | [11] 105 % of control

CC(=O)Nn1nnc2ccccc2c1=O
inactive: [9] 97 % of control | [10] 110 % of control | [11] 110 % of control

CCCCc1c(OS(=O)(=O)c2ccc(C)cc2)c(C#N)c2[nH]c3ccccc3n2c1=O
inactive: [12] 91 % of control | [13] 96 % of control | [14] 89 % of control

O=C1Nc2ccc([N+](=O)[O-])cc2/C1=C/C(=O)c1ccccc1
inactive: dose: 3.13 mg/kg/injection, schedule: Q01DX009 (ip), vehicle: saline with Tween-80 101 % of control | dose: 6.25 mg/kg/injection, schedule: Q01DX009 (ip), vehicle: saline with Tween-80 98 % of control | dose: 12.5 mg/kg/injection, schedule: Q01DX009 (ip), vehicle: saline with Tween-80 96 % of control | [6] 100 % of control | [7] 108 % of control

CN(C)CCC(OC(=O)c1ccccc1Cl)c1ccccc1 (centres undefined)
inactive: dose: 25.0 mg/kg/injection, schedule: Q01DX009 (ip), vehicle: saline 99 % of control and 100 % of control and 101 % of control | [1] 101 % of control and 107 % of control and 117 % of control | [2] 108 % of control and 116 % of control

COC(=O)C(C)=O
inactive: dose: 100.0 mg/kg/injection, schedule: Q04DX003 (ip), vehicle: saline 100 % of control | dose: 200.0 mg/kg/injection, schedule: Q04DX003 (ip), vehicle: saline 90 % of control | dose: 400.0 mg/kg/injection, schedule: Q04DX003 (ip), vehicle: saline 90 % of control

Cc1ccc(S(=O)(=O)/C=C/C(=O)c2cccs2)cc1
inactive: dose: 100.0 mg/kg/injection, schedule: Q04DX002 (ip), vehicle: saline 99 % of control | dose: 200.0 mg/kg/injection, schedule: Q04DX002 (ip), vehicle: saline 100 % of control | dose: 400.0 mg/kg/injection, schedule: Q04DX002 (ip), vehicle: saline 107 % of control

O=c1ccnc2ccccn12
inactive: [12] 94 % of control | [13] 107 % of control | [14] 100 % of control

Oc1c(-c2ccccc2)nc2ccccn12
inactive: dose: 60.0 mg/kg/injection, schedule: Q01DX005 (ip), vehicle: Klucel (hydroxypropylcellulose) (HPC) 94 % of control | dose: 120.0 mg/kg/injection, schedule: Q01DX005 (ip), vehicle: Klucel (hydroxypropylcellulose) (HPC) 96 % of control | dose: 240.0 mg/kg/injection, schedule: Q01DX005 (ip), vehicle: Klucel (hydroxypropylcellulose) (HPC) 107 % of control

CCC1OCCN1C(C)C (centres undefined)
inactive: dose: 100.0 mg/kg/injection, schedule: Q04DX003 (ip), vehicle: saline with Tween-80 104 % of control | dose: 200.0 mg/kg/injection, schedule: Q04DX003 (ip), vehicle: saline with Tween-80 100 % of control

N#Cc1ccc(-c2ccccc2)nc1Cl
inactive: dose: 25.0 mg/kg/injection, schedule: Q01DX005 (ip), vehicle: Klucel (hydroxypropylcellulose) (HPC) 98 % of control | [3] 98 % of control | [4] 93 % of control | [5] 102 % of control

CCn1c(Cl)c(/C=N/NS(=O)(=O)c2ccc(C)cc2)c2cccc(/C=N\NS(=O)(=O)c3ccc(C)cc3)c21
inactive: dose: 50.0 mg/kg/injection, schedule: Q01DX001 (ip), vehicle: Klucel (hydroxypropylcellulose) (HPC) 99 % of control | [8] 96 % of control

OC(CCCN1CCN2CCc3[nH]c4ccccc4c3C2C1)c1ccc(F)cc1 (centres undefined)
inactive: [15] 100 % of control | [16] 95 % of control | [17] 100 % of control

O=C(CNC(=O)c1ccc(Cl)cc1)c1ccc(Br)cc1
inactive: dose: 12.5 mg/kg/injection, schedule: Q01DX005 (ip), vehicle: saline with Tween-80 94 % of control | dose: 25.0 mg/kg/injection, schedule: Q01DX005 (ip), vehicle: saline with Tween-80 92 % of control | [9] 92 % of control

O=C1NC(=O)C2=C1CCCC2Br (centres undefined)
inactive: dose: 3.13 mg/kg/injection, schedule: Q01DX009 (ip), vehicle: distilled water + Tween-80 99 % of control | dose: 6.25 mg/kg/injection, schedule: Q01DX009 (ip), vehicle: distilled water + Tween-80 92 % of control | dose: 12.5 mg/kg/injection, schedule: Q01DX009 (ip), vehicle: distilled water + Tween-80 117 % of control

C=CCNC(=O)/C=C\C(=O)O
inactive: dose: 37.5 mg/kg/injection, schedule: Q01DX009 (ip), vehicle: saline with Tween-80 98 % of control | dose: 75.0 mg/kg/injection, schedule: Q01DX009 (ip), vehicle: saline with Tween-80 94 % of control | dose: 150.0 mg/kg/injection, schedule: Q01DX009 (ip), vehicle: saline with Tween-80 94 % of control | dose: 300.0 mg/kg/injection, schedule: Q01DX009 (ip), vehicle: saline with Tween-80 100 % of control

NC(=O)c1nc2ccccn2c1[N+](=O)[O-]
inactive: [18] 99 % of control | [19] 101 % of control | [20] 108 % of control

CCC(c1ccc(Cl)cc1)C(C#N)c1ccc(Cl)cc1 (centres undefined)
inactive: [18] 108 % of control | [19] 104 % of control | [20] 102 % of control

COc1ccc2cc1Oc1ccc(cc1)CC1c3cc(OC)c(OC)c(c3CCN1C)Oc1c(OC)c(OC)cc3c1[C@H](C2)NCC3 (some centres undefined)
inactive: dose: 2.75 mg/kg/injection, schedule: Q01DX005 (ip), vehicle: Klucel (hydroxypropylcellulose) (HPC) 90 % of control | dose: 5.5 mg/kg/injection, schedule: Q01DX005 (ip), vehicle: Klucel (hydroxypropylcellulose) (HPC) 99 % of control | dose: 11.0 mg/kg/injection, schedule: Q01DX005 (ip), vehicle: Klucel (hydroxypropylcellulose) (HPC) 99 % of control | dose: 22.0 mg/kg/injection, schedule: Q01DX005 (ip), vehicle: Klucel (hydroxypropylcellulose) (HPC) 94 % of control

CC(C)(C)OSc1ccccc1
inactive: [15] 101 % of control | [16] 97 % of control | [17] 102 % of control

CS(=O)(=O)Cc1cc(-c2ccccc2)no1
inactive: [12] 100 % of control | [13] 99 % of control | [14] 100 % of control
